Measured values reported in US20240059727A1, “METHOD OF MAKING NICOTINAMIDE RIBOFURANOSIDE SALTS BY SALT METATHESIS, THE CRYSTALLINE FORM OF ITS TOSYLATE SALT AND THE CO-CRYSTALLIZED FORM OF ITS CHLORIDE:IODIDE SALT” (BIOSYNTH AG, priority 2021, published 2024).

Assay: Solubility in methanol
Conditions: volume of methanol per 1 g salt; lower volume = better solubility

Row | methanol needed for dissolving 1 g of the salt [mL] | Molecule
1 | 50 | NC(=O)c1ccc[n+](C2OC(CO)C(O)C2O)c1.[Br-] [NR·Br, nicotinamide-β-D-ribofuranoside bromide]
2 | 40 | NC(=O)c1ccc[n+]([C@@H]2O[C@H](CO)[C@@H](O)[C@H]2O)c1.[Cl-] [NR·Cl, nicotinamide-β-D-ribofuranoside chloride]

Row | Molecule | methanol needed for dissolving 1 g of the salt [mL]
3 | nicotinamide-β-D-ribofuranoside tosylate [NR·p-tosylate] | 15
